Measurements: ChEMBL document CHEMBL5126592, “Design, synthesis and activity against drug-resistant bacteria evaluation of C-20, C-23 modified 5-O-mycaminosyltylonolide derivatives” (Eur J Med Chem, 2022)
≈ marks a conversion by molar mass, not a printed value. Calls of active or inactive are those of the source. The calls are words filed in the database; no cut-off is given here.

What was measured:
[1] = Genotoxicity in Salmonella typhimurium TA102 assessed as number of revertants at 1x10^-3 mg/plate incubated for 72 hrs in absence of liver S9 fraction by Ames test (reference value: 386.67 +/- 23.44); assay type: toxicity; conditions: salmonella enterica subsp. enterica serovar typhimurium, s9, 72 h
[2] = Genotoxicity in Salmonella typhimurium TA1537 assessed as number of revertants at 4x10^-5 mg/plate incubated for 72 hrs in presence of liver S9 fraction by Ames test (reference value: 20 +/- 5); assay type: toxicity, subcellular; conditions: salmonella enterica subsp. enterica serovar typhimurium, s9, 72 h
[3] = Toxicity in Kunming mouse infected with Staphylococcus aureus ATCC 25923 assessed as appearance of pink and spongy lungs at 20 to 40 mg/kg, iv measured after 1 hr by hematoxylin and eosin staining based microscopic analysis; assay type: organism-based; conditions: in vivo, dose 20-40 mg/kg
[4] = Genotoxicity in Salmonella typhimurium TA102 assessed as number of revertants at 8x10^-6 mg/plate incubated for 72 hrs in absence of liver S9 fraction by Ames test (reference value: 386.67 +/- 23.44); assay type: toxicity; conditions: salmonella enterica subsp. enterica serovar typhimurium, s9, 72 h
[5] = test system: Staphylococcus aureus; assay: Antibacterial activity against Staphylococcus aureus ATCC 29213 incubated for 16 to 20 hrs using 10^7 CFU/ml bacterial inoculum by broth microdilution method; assay type: functional; conditions: time 16-20 hrs
[6] = test system: Klebsiella pneumoniae; assay: Antibacterial activity against Klebsiella pneumoniae ATCC 13883 incubated for 16 to 20 hrs by broth microdilution method; assay type: functional; conditions: time 16-20 hrs
[7] = test system: Staphylococcus chromogenes; assay: Antibacterial activity against Staphylococcus chromogenes incubated for 16 to 20 hrs by broth microdilution method; assay type: functional; conditions: time 16-20 hrs
[8] = test system: Escherichia coli; assay: Antibacterial activity against Escherichia coli incubated for 16 to 20 hrs by broth microdilution method; assay type: functional; conditions: time 16-20 hrs
[9] = Genotoxicity in Salmonella typhimurium TA1537 assessed as number of revertants at 4x10^-5 mg/plate incubated for 72 hrs in absence of liver S9 fraction by Ames test (reference value: 22.67 +/- 2.52); assay type: toxicity; conditions: salmonella enterica subsp. enterica serovar typhimurium, s9, 72 h
[10] = test system: Streptococcus dysgalactiae; assay: Antibacterial activity against Streptococcus dysgalactiae incubated for 16 to 20 hrs by broth microdilution method; assay type: functional; conditions: time 16-20 hrs
[11] = test system: Escherichia coli; assay: Antibacterial activity against Escherichia coli ATCC 25922 incubated for 16 to 20 hrs using 10^7 CFU/ml bacterial inoculum by broth microdilution method; assay type: functional; conditions: time 16-20 hrs
[12] = Genotoxicity in Salmonella typhimurium TA98 assessed as number of revertants at 8x10^-6 mg/plate incubated for 72 hrs in absence of liver S9 fraction by Ames test (reference value: 57.33 +/- 3.06); assay type: toxicity; conditions: salmonella enterica subsp. enterica serovar typhimurium, s9, 72 h
[13] = test system: Staphylococcus aureus; assay: Antibacterial activity against Staphylococcus aureus ATCC 29213 at pH 8.6 incubated for 16 to 20 hrs in presence of 50% foetal bovine serum by broth microdilution method; assay type: functional; conditions: time 16-20 hrs
[14] = Genotoxicity in Salmonella typhimurium TA98 assessed as number of revertants at 2x10^-4 mg/plate incubated for 72 hrs in presence of liver S9 fraction by Ames test (reference value: 43.67+/- 7.1); assay type: toxicity, subcellular; conditions: salmonella enterica subsp. enterica serovar typhimurium, s9, 72 h
[15] = Genotoxicity in Salmonella typhimurium TA100 assessed as number of revertants at 8x10^-6 mg/plate incubated for 72 hrs in presence of liver S9 fraction by Ames test (reference value: 204.33 +/- 8.14); assay type: toxicity, subcellular; conditions: salmonella enterica subsp. enterica serovar typhimurium, s9, 72 h
[16] = test system: Staphylococcus aureus; assay: Antibacterial activity against Staphylococcus aureus ATCC 29213 at pH 6.8 incubated for 16 to 20 hrs by broth microdilution method; assay type: functional; conditions: time 16-20 hrs
[17] = test system: Staphylococcus aureus; assay: Antibacterial activity against Staphylococcus aureus ATCC 29213 at pH 8.6 incubated for 16 to 20 hrs in presence of 10% foetal bovine serum by broth microdilution method; assay type: functional; conditions: time 16-20 hrs
[18] = Genotoxicity in Salmonella typhimurium TA1535 assessed as number of revertants at 1x10^-3 mg/plate incubated for 72 hrs in absence of liver S9 fraction by Ames test (reference value: 14.33 +/- 0.58); assay type: toxicity; conditions: salmonella enterica subsp. enterica serovar typhimurium, s9, 72 h
[19] = test system: Staphylococcus aureus; assay: Antibacterial activity against Staphylococcus aureus ATCC 29213 incubated for 16 to 20 hrs using 10^6 CFU/ml bacterial inoculum by broth microdilution method; assay type: functional; conditions: time 16-20 hrs
[20] = Genotoxicity in Salmonella typhimurium TA98 assessed as number of revertants at 4x10^-5 mg/plate incubated for 72 hrs in presence of liver S9 fraction by Ames test (reference value: 43.67+/- 7.1); assay type: toxicity, subcellular; conditions: salmonella enterica subsp. enterica serovar typhimurium, s9, 72 h
[21] = test system: Staphylococcus aureus; assay: Antibacterial activity against Staphylococcus aureus ATCC 25923 infected in kunming mouse assessed as reduction in bacterial load at 20 to 40 mg/kg, iv measured after 1 hr; assay type: functional, organism-based; conditions: dose 20-40 mg/kg
[22] = test system: Escherichia coli; assay: Antibacterial activity against Escherichia coli ATCC 25922 incubated for 16 to 20 hrs in presence of 50% foetal bovine serum by broth microdilution method; assay type: functional; conditions: time 16-20 hrs
[23] = Genotoxicity in Salmonella typhimurium TA1537 assessed as number of revertants at 8x10^-6 mg/plate incubated for 72 hrs in presence of liver S9 fraction by Ames test (reference value: 20 +/- 5); assay type: toxicity, subcellular; conditions: salmonella enterica subsp. enterica serovar typhimurium, s9, 72 h
[24] = test system: Escherichia coli; assay: Antibacterial activity against Escherichia coli ATCC 25922 at pH 8.4 incubated for 16 to 20 hrs by broth microdilution method; assay type: functional; conditions: time 16-20 hrs
[25] = Toxicity in Kunming mouse infected with Staphylococcus aureus ATCC 25923 assessed as intact lung tissue structure at 20 to 40 mg/kg, iv measured after 1 hr by hematoxylin and eosin staining based microscopic analysis; assay type: organism-based; conditions: in vivo, dose 20-40 mg/kg
[26] = Genotoxicity in Salmonella typhimurium TA98 assessed as number of revertants at 2x10^-4 mg/plate incubated for 72 hrs in absence of liver S9 fraction by Ames test (reference value: 57.33 +/- 3.06); assay type: toxicity; conditions: salmonella enterica subsp. enterica serovar typhimurium, s9, 72 h
[27] = test system: Escherichia coli; assay: Antibacterial activity against Escherichia coli ATCC 25922 at pH 8.6 incubated for 16 to 20 hrs by broth microdilution method; assay type: functional; conditions: time 16-20 hrs
[28] = Genotoxicity in Salmonella typhimurium TA98 assessed as number of revertants at 8x10^-6 mg/plate incubated for 72 hrs in presence of liver S9 fraction by Ames test (reference value: 43.67+/- 7.1); assay type: toxicity, subcellular; conditions: salmonella enterica subsp. enterica serovar typhimurium, s9, 72 h
[29] = Genotoxicity in Salmonella typhimurium TA1535 assessed as number of revertants at 8x10^-6 mg/plate incubated for 72 hrs in presence of liver S9 fraction by Ames test (reference value: 15.33 +/- 2.52); assay type: toxicity, subcellular; conditions: salmonella enterica subsp. enterica serovar typhimurium, s9, 72 h
[30] = test system: Escherichia coli; assay: Antibacterial activity against Escherichia coli ATCC 25922 at pH 7 incubated for 16 to 20 hrs by broth microdilution method; assay type: functional; conditions: time 16-20 hrs
[31] = test system: Staphylococcus aureus; assay: Antibacterial activity against Staphylococcus aureus incubated for 16 to 20 hrs by broth microdilution method; assay type: functional; conditions: time 16-20 hrs
[32] = test system: Staphylococcus aureus; assay: Antibacterial activity against Staphylococcus aureus ATCC 29213 incubated for 16 to 20 hrs using 10^5 CFU/ml bacterial inoculum by broth microdilution method; assay type: functional; conditions: time 16-20 hrs
[33] = test system: Escherichia coli; assay: Antibacterial activity against Escherichia coli ATCC 25922 incubated for 16 to 20 hrs using 10^3 CFU/ml bacterial inoculum by broth microdilution method; assay type: functional; conditions: time 16-20 hrs
[34] = Genotoxicity in Salmonella typhimurium TA98 assessed as number of revertants at 1.6x10^-6 mg/plate incubated for 72 hrs in absence of liver S9 fraction by Ames test (reference value: 57.33 +/- 3.06); assay type: toxicity; conditions: salmonella enterica subsp. enterica serovar typhimurium, s9, 72 h
[35] = test system: Staphylococcus aureus; assay: Antibacterial activity against Staphylococcus aureus ATCC 29213 at pH 8.6 incubated for 16 to 20 hrs in absence of foetal bovine serum by broth microdilution method; assay type: functional; conditions: time 16-20 hrs

CC[C@H]1OC(=O)C[C@@H](O)[C@H](C)[C@@H](O[C@@H]2O[C@H](C)[C@@H](O)[C@H](N(C)C)[C@H]2O)[C@@H](CCN(C)Cc2cn(-c3cnc4ccccc4c3)nn2)C[C@@H](C)C(=O)/C=C/C(C)=C/[C@@H]1CN1CCCCCC1
Activity [1]: 418 | Activity [2]: 14.67 | Activity [3]: Non-Toxic | Activity [4]: 425.33 | MIC [5]: 0.25 µg/mL (≈ 0.277 µM) | MIC [6]: 1 µg/mL (≈ 1.11 µM) | MIC [7]: 0.25 µg/mL (≈ 0.277 µM) | MIC [8]: 1 µg/mL (≈ 1.11 µM) | Activity [9]: 19.67 | MIC [10]: 0.25 µg/mL (≈ 0.277 µM) | MIC [11]: 1 µg/mL (≈ 1.11 µM) | Activity [12]: 63.33 | MIC [13]: 2 µg/mL | Activity [14]: 44.33 | Activity [15]: 167 | MIC [16]: 4 µg/mL (≈ 4.43 µM) | MIC [17]: 0.5 µg/mL | Activity [18]: 5 | MIC [19]: 0.25 µg/mL (≈ 0.277 µM) | Activity [20]: 44.67 | Activity [21]: Active | MIC [22]: 4 µg/mL | Activity [23]: 17.67 | MIC [24]: 0.25 µg/mL (≈ 0.277 µM) | Activity [25]: Non-Toxic | Activity [26]: 61.33 | MIC [27]: 0.25 µg/mL (≈ 0.277 µM) | Activity [28]: 45.67 | Activity [29]: 13.67 | MIC [30]: 4 µg/mL (≈ 4.43 µM) | MIC [31]: 0.25 µg/mL (≈ 0.277 µM) | MIC [32]: 0.125 µg/mL (≈ 0.139 µM) | MIC [33]: 0.25 µg/mL (≈ 0.277 µM) | Activity [34]: 64.33 | MIC [35]: 0.25 µg/mL (≈ 0.277 µM)
